Reference: the NIST ThermoML archive (doi:10.1016/j.jct.2013.07.025)
Numbers after ± are expanded uncertainties.

Experiments:
[1] = Molar enthalpy of transition or fusion; settings: Crystal; DSC
[2] = Crystal; DTA

Row | Molar enthalpy of transition or fusion [1] [kJ/mol] | Normal melting temperature [2] [°C] | Compound
1 | 37.1 ± 2.1 | 147.40 ± 0.96 | C[N+](C)(C)CCOC(=O)CCC(=O)O.[Cl-] [hydrogen choline chloride succinate]
2 | 16.5 ± 1.9 | 67.60 ± 0.96 | CC(=O)[O-].C[N+](C)(C)CCO [choline acetate]
